According to paper PMC8387043, “Host Poly(A) Polymerases PAPD5 and PAPD7 Provide Two Layers of Protection That Ensure the Integrity and Stability of Hepatitis B Virus RNA” (Journal of Virology, 2021):
Like-named read-outs stand apart in the source and are kept apart here.

Legend:
Type in all cases: cell-based
[1] = test system: HIV; assay: Antiviral selectivity panel, CPE in CEM-SS cells; settings: Human immunodeficiency virus 1
[2] = Cytotoxicity (summary statement); settings: several cell lines from different tissue origins; 30 μM highest concentration tested
[3] = test system: HBV; assay: Antiviral assay in HBV-infected primary human hepatocytes (PHH); settings: Hepatitis B virus, Hepatocyte

COCCCOc1cc2c(nc1OC)-c1cc(=O)c(C(=O)O)cn1[C@H](C(C)C)C2 [AB-452]
EC50 [1]: > 30000 nM | CC50 [2]: > 30000 nM | EC50 ([3]; read-out: HBV DNA EC50): 4.2 ± 3.8 nM | EC50 ([3]; read-out: HBeAg EC50): 3.7 ± 1.3 nM | EC50 ([3]; read-out: HBsAg EC50): 3 ± 2.1 nM
